From patent US8323971B2, “Differentiation of pluripotent cells into primary germ layer progenitors” (Cambridge Enterprise Limited, priority 2006, dated 2012)

B1: Noggin: the BMP inhibitor Noggin (protein, UniProt Q13253 28-232, looked up)
Noggin: QHYLHIRPAPSDNLPLVDLIEHPDPIFDPKEKDLNETLLRSLLGGHYDPGFMATSPPEDRPGGGGGAAGGAEDLAELDQLLRQRPSGAMPSEIKGLEFSEGLAQGKKQRLSKKLRRKLQMWLWSQTFCPVLYAWNDLGSRFWPRYVKVGSCFSKRSCSVPEGMVCKPSKSVHLTVLRWRCQRRGGQRCGWIPIQYPIISECKCSC

Tests used:
Type in all cases: cell-based, human
H9 hESCs = assay: Screening of culture conditions by immunostaining for Oct4, Sox2, Brachyury, Sox17; conditions: for rescue of Oct4 expression under SB431542: added with SB431542
Description: Table 2 and Table 3 show the screening of culture conditions for inducing mesoendoderm differentiation into CDM. H9 hESCs were grown for 7 days or more in CDM-BSA or CDM-PVA supplemented with different growth factors (Activin, BMP4, FGF2) or inhibitors (SU5402 for FGF, SB431542 for Activin/Nodal/TGFβ, BIO for βCatenin). Then, immunostaining analysis were used to determine the fractions of cells expressing the pluripotent marker Oct-4, neuroectoderm marker Sox2, the mesoderm marker Brachyury, and the endoderm marker Sox17. The quantities of expressing cells were divided into five arbitrary categories. 0 for absence of expression, VL for expressing cells <1%, L for expressing cells <5%, H for expressing cells >10%, VH for expressing cells >50%. IN red are indicated the conditions allowing the generation of mesendoderm cells expressing Brachyury or Sox17.
HESCs or differentiated progenitors were fixed for 20 minutes at 4° C. in 4% paraformaldehyde (PFA) and then washed three times in PBS. Cells were incubated for 20 minutes at room temperature in PBS containing 10% goat serum (Serotec) and subsequently incubated over night at 4° C. with primary antibody diluted in 1% goat serum in PBS as follows: SSEA-3 (1:100, Santa Cruz), SSAE-1 (1:25), Tra-1-60 (1:100, Santa CruZ), Oct-4 (1:100, Abcam ab18976 or SantaCruz), Sox2 (1:100, Abcam ab15830), Alkaline Phophatase (1:50, Abcam ab17989), Brachyury (1:100, Abcam ab20680 or RandD systems), Sox17 (RandD systems), FoxA2 (1:50, Abcam ab5074), GATA4 (1:250, Santa CruZ), GATA6 (1:200, Abcam ab22600 or Santa Cruz), Vent-2 (1:100, Abcam ab20913), Goosecoid (1:25, Abcam ab21059), Wnt3A (1:100, Abcam ab19925), CXCR4 (1:100, RanD Systems or Pharmingen). Nestin (1:200, Abcam ab5968), NCAM (1:100, Abcam ab8077), GFAP (ZZ), Neurofilament (ZZ), βIII Tubulin (ZZ), Glutamate (ZZ), N-Cadherin (1:100, Abcam ab18203 or ZZ). Cells were then washed three times in PBS and incubated with fluorescein-Isothiocyanate-conjugated anti-mouse IgG or IgM (Sigma 1:200 in 1% goat serum in PBS) or rat IgM (Jackson laboratory 1:300 in goat serum in PBS) or rabbit IgG (Jackson laboratory 1:200 in donkey serum in PBS) for two hours at room temperature. Unbound secondary antibody was removed by 3 washes in PBS. Hoechst 33258 was added to the first wash (Sigma 1:10000).
We then developed a method for inducing differentiation of hESCs into the three primary germ layers. Culture conditions inductive for mesoderm, endoderm and neuroectoderm were screened using an approach based on immunostaining analyses for the expression of proteins specifically expressed by pluripotent cells (Oct-4), neuroectoderm progenitors (Sox2 in absence of Oct4), endoderm progenitors (Sox17) and mesoderm progenitors (Brachyury). In summary, hESCs grown in CDM (CDM-BSA or hu-CDM) were plated on fibronectin in CDM-BSA/AF or CDM-PVA/AF. Then cocktails of growth factors (BMP4, FGF2, Activin) or chemical inhibitors (SU5402, SB431542) were added at different times and for different periods. After 7 to 10 days treatment, cells were fixed and then the expression of Oct-4/Sox2, Sox17 and Brachyury was analysed using immunostaining. The effect of three growth factors on the differentiation of hESCs into the primary germ layers was systematically analysed in our screen. We also studied the function of FGF and Activin signalling pathways in the maintenance of the pluripotent state by analysing the effect of the SU5402, a chemical inhibitor of FGF receptors, and the SB431542, a chemical inhibitor of Activin/TGFβ receptors.

hESC derived EBs = assay: Real time qPCR / RT-PCR of neuroectoderm and pluripotency markers in EBs
Description: Four independent batches of WT and Lefty EBs were used for this analysis.
Five independent batches of DMSO- and SB431542-treated EBs were used for this analysis.
Lefty or Cerb-S expressing hESCs (as well as wildtype H9 and hSF-6 hESCs) were grown in 6 cm dishes (Corning), on mouse feeders. When confluent, hESCs were passaged using collagenase 1 mg/ml, as previously described (Schatten et al., 2005) and cultured in non-adherent conditions in CDM supplemented with either SU5402 (Calbiochem; 10 μM), SB431542 (Tocris; 20 μM), FGF-2 (R&D Systems; 12 ng/ml) or Noggin 200 ng/ml.
For some RT-PCR experiments, 50-100 ng of RNA were used for each RT-PCR reaction, using the OneStep RT-PCR kit according to manufacturer instructions. For real-time PCR, 1 μg RNA was reverse-transcribed using the Qiagen QuantiTect Reverse Transcription kit. 1/20-1/40 of each cDNA reaction was used for each real-time PCR reaction using the QuantiTect SYBR Green PCR Kit (Qiagen) according to manufacturer instructions. Relative quantification of gene expression was done by normalising the detected levels of gene of interest mRNA to those of the house-keeping GAPDH gene. All primers were purchased from Qiagen, with the exception of Xenopus Cerb-S: Forward 5′-[…]-3′ (SEQ ID NO: 1); Reverse 5′-ATGGTGCAGGGTAG TAGATG-3′ (SEQ ID NO: 2). Mouse Lefty2: Forward 5^r-[…]-3′ (SEQ ID NO: 3); Reverse 5′-[…]-3′ (SEQ ID NO: 4).

hESCs = assay: Quantitation of β-tubulin III positive cells in monolayer differentiation; conditions: Lefty expressing hESCs, feeder free monolayer, CDM; FGF 12 ng/ml, Noggin 200 ng/ml, SU5402 20 μM
Description: In some experiments, Wildtype and Lefty expressing hESCs were grown on fibronectin in FGF (12 ng/ml)/Activin (20 ng/ml) as a monolayer in the absence of a feeder layer (Vallier et al., 2005). When cells were 70-80% confluent medium was changed to either CDM only, CDM/FGF (12 ng/ml), CDM/Noggin 200 ng/ml, CDM/SU5402 and differentiated for 24 days.
To quantify the neurogenic potential of Lefty expressing hESCs, we cultured Lefty expressing hESCs in feeder-free conditions as a monolayer in CDM supplemented with Activin and FGF as described previously (Vallier et al., 2005). When cells reached 70-80% confluency, medium was changed to CDM only, CDM plus FGF (12 ng/ml) (CDM/FGF), CDM plus the BMP inhibitor Noggin (200 ng/ml) ([…]) (CDM/SU5402), and cells were cultured in these conditions for 24 days
The incidence of neural differentiation was determined by counting the number of β-tubulin III positive cells in random fields.

Row | Molecule | rescue of Oct4 expression under SB431542 (H9 hESCs) | number of β-tubulin III positive cells compared to controls (hESCs) | further results
1 | O=C1Nc2cc(Br)ccc2/C1=C1/Nc2ccccc2/C1=N\O [BIO, reference compound] | not sufficient to rescue the expression of Oct4 |  | 
2 | NC(=O)c1ccc(-c2nc(-c3ccc4c(c3)OCO4)c(-c3ccccn3)[nH]2)cc1 [SB431542, 4-(5-Benzol[1,3]dioxol-5-yl-4-pyrldin-2-yl-1H-imidazol-2-yl)-benzamide hydrate] |  |  | cells expressing the mesendoderm markers Bra, Sox17, FoxA2, and αFP (H9 hESCs; in the presence of SB431542): never observed; Nestin, Sox3, and NGN2 expression (real time qPCR) (hESC derived EBs; 20 μM, EBs cultured 14-16 days, vs DMSO): average increase; pluripotency marker Oct4 (RT-PCR time course) (hESC derived EBs; EBs harvested every 4 days over 16 days, compared to controls): rapid down-regulation; Sox1 expression levels (real time qPCR) (hESC derived EBs; EBs in CDM 14-16 days, vs DMSO): not a significant increase
3 | Cc1c[nH]c(C=C2C(=O)Nc3ccccc32)c1CCC(=O)O [SU5402, 3-[3-(2-Carboxyethyl)-4-methylpyrrol-2-methylidenyl]-2-indolinone, reference compound] |  | significant reduction | 
4 | FGF2: human fibroblast growth factor 2 | not sufficient to rescue the expression of Oct4 | did not show a significant increase | 
5 | B1 |  | significant increase | 
